Test results from ChEMBL document CHEMBL2157977, “The antitumor agent doxorubicin binds to Fanconi anemia group F protein” (Bioorg Med Chem, 2012).
Activity calls are given as the source filed them. The calls are words filed in the database; no cut-off is given here.

Assays:
[1] = biological target: Fanconi anemia group D2 protein (Homo sapiens) (UniProt Q9BXW9); experiment: Inhibition of CDDP-induced FANCD2 monoubiquitination in human HeLa cells at 9 uM after 18 hrs by Western blot analysis; assay type: cell-based
[2] = biological target: T1, Fanconi anemia group F protein (Homo sapiens) (UniProt Q9NPI8); experiment: Binding affinity to human thymus flag-tagged full-length FANCF expressed in HEK293T cells after 10 mins by pull-down assay; assay type: cell-based; conditions: HEK-293T
T1 sequence (whole entry): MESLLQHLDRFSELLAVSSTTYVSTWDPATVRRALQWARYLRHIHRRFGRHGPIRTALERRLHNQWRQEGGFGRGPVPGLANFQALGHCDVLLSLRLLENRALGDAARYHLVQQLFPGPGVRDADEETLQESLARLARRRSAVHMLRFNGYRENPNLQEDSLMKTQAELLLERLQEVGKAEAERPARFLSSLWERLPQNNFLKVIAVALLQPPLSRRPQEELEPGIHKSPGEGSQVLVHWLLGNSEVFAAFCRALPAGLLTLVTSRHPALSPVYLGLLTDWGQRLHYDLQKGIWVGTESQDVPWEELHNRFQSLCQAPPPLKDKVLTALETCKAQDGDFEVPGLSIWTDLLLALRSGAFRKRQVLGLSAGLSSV

Chain of Fanconi anemia group D2 protein (Homo sapiens) (Q9BXW9 whole entry): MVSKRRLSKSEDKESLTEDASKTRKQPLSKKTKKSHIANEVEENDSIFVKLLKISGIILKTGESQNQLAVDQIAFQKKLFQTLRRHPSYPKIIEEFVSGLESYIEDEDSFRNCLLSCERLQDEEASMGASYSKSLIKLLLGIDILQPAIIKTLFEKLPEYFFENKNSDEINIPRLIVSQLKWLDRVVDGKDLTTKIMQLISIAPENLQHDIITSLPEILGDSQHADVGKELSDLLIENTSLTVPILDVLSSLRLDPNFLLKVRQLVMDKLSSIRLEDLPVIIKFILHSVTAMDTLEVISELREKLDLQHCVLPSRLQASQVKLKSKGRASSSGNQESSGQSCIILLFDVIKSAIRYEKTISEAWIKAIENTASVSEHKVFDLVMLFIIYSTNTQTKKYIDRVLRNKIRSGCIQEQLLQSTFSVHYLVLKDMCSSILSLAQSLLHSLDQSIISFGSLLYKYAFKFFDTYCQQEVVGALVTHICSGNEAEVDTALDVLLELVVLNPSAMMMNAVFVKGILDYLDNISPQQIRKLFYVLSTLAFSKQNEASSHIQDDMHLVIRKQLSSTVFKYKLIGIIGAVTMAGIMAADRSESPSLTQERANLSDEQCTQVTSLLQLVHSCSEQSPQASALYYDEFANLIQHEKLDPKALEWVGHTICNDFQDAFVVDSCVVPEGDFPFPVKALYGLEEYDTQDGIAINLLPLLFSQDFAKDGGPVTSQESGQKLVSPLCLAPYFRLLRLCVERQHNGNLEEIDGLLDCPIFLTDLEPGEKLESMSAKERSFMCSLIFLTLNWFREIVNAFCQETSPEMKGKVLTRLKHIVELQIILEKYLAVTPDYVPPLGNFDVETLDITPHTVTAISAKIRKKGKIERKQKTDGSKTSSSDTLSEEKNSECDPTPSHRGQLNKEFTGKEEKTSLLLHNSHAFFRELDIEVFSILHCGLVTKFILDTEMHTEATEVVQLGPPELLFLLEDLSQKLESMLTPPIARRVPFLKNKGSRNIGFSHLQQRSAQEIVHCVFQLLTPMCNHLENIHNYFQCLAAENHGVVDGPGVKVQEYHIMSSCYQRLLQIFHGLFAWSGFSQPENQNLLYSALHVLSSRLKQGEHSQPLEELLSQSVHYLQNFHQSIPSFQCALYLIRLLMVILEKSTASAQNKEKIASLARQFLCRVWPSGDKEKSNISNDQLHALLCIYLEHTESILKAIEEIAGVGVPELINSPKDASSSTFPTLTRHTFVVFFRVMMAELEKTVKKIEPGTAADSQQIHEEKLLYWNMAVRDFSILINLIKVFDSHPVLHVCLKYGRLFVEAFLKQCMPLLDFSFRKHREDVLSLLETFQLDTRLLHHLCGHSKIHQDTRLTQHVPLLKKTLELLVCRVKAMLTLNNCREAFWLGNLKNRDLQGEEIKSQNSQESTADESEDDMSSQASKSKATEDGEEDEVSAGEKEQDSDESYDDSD

SMILES	inhibition [1]	Activity [2]
COc1cccc2c1C(=O)c1c(O)c3c(c(O)c1C2=O)C[C@@](O)(C(=O)CO)C[C@@H]3O[C@H]1C[C@H](N)[C@H](O)[C@H](C)O1	Active	–
COc1cccc2c1C(=O)c1c(O)c3c(c(O)c1C2=O)C[C@@](O)(C(=O)CO)C[C@@H]3O[C@H]1C[C@H](NC(=O)CCCCCNC(=O)CCCC[C@@H]2SC[C@@H]3NC(=O)N[C@@H]32)[C@H](O)[C@H](C)O1	–	Active
